# Experimental data taken from patent US20130071414A1, “ENGINEERED CD19-SPECIFIC T LYMPHOCYTES THAT COEXPRESS IL-15 AND AN INDUCIBLE CASPASE-9 BASED SUICIDE GENE FOR THE TREATMENT OF B-CELL MALIGNANCIES” (priority 2011, published 2013).
# Columns and labels:
# [1] = test system: inducible caspase-9 suicide gene in iC9/CAR.19/IL-15^+ T cells; conditions: previous observation (ref 27); cited from earlier work
# [2] = test system: iC9/CAR.19/IL-15^+ T cells expressing eGFP-FFLuc; experiment: In vivo validation of the suicide gene, Raji-engrafted mice with labeled iC9/CAR.19/IL-15^+ T cells; design: species or system SCID mice; conditions: Raji i.v., after CID i.p.
# Experimental: In vivo validation of the suicide gene. To evaluate the functionality of the suicide gene, mice bearing tumor cells and receiving iC9/CAR.19/IL-15^+ T cells labeled with the eGFP-FFluc gene were treated with CID ([…]) i.p. 2 to 3 doses every other day.^27 CID treatment was initiated when the T-cell bioluminescent signal was exponentially increasing, indicating active expansion of the transgenic cells. Mice were then imaged as described above.
# Mice were engrafted i.v. with Raji tumor cells and then infused with eGFP-FFLuc labeled iC9/CAR.19/IL-15^+ T cells. These cells localized and expanded at the tumor site by day 14 after infusion as assessed by bioluminescence measurement (FIG. 6b).
structure (smiles),measurement,setting,value
"CC[C@H](C(=O)N1CCCC[C@H]1C(=O)O[C@H](CCc1ccc(OC)c(OC)c1)c1cccc(OCC(=O)NCC(CNC(=O)COc2cccc([C@@H](CCc3ccc(OC)c(OC)c3)OC(=O)[C@@H]3CCCCN3C(=O)[C@@H](CC)c3cc(OC)c(OC)c(OC)c3)c2)CN(C)C)c1)c1cc(OC)c(OC)c(OC)c1 [CID, AP20187]",Fraction of cells that escape apoptosis/necrosis shortly after exposure to the dimerizer drug,[1],< 10%
same,T-cell bioluminescence after administration of the CID,[2],1.3×10^5±3×10^4 p/s/cm^2/sr
